The text below walks through data of patent US9926318B2, “Tetracyclic autotaxin inhibitors” (PharmAkea, Inc., priority 2013, dated 2018).

This assay addresses human autotaxin (ATX) (Homo sapiens (Human), UniProt Q13822). The assay is described as follows: Human autotaxin assay (choline release from LPC, Hep3B conditioned media). The format is biochemical. The note with it: concentrated conditioned media from Hep3B cells, LPC substrate. The protocol:
ATX activity is assayed in concentrated conditioned media from Hep3B human hepatocellular carcinoma cells by measuring the amount of choline released from the substrate, lysophosphatidylcholine (LPC) as it is cleaved to LPA. Conditioned media is collected from confluent Hep3B cells and concentrated 20-fold using Centriprep-30 filter devices (Millipore). […] 100 μl of a color mix containing 4.5 mM 4-aminoantipyrine, 2.7 mM N-ethyl-N-(2-hydroxy-3-sulfopropyl)-m-toluidine, 21 units/ml horseradish peroxidase and 3 units/ml choline oxidase in 50 mM Tris, pH 8, 4.5 mM MgCl2 is added and the incubation continued for 15 minutes at room temperature before reading the absorbance at 555 nm.

Usually IC50 stands for the midpoint of a concentration-inhibition curve. Consider `O=C(O)CCCN1C(=O)C2Cc3c(n(CCCc4ccccc4)c4ccccc34)CN2C1=O` (racemic) [Compound 1-7, 4-(1,3-dioxo-6-(3-phenylpropyl)-11,11a-dihydro-1H-imidazo[1′,5′:1,6]pyrido[3,4-b]indol-2(3H,5H,6H)-yl)butanoic acid], for which the IC50 was < 500 nM.

As for `O=C1NCC2Cc3c(n(Cc4ccc(F)cc4)c4ccccc34)CN12` (racemic) [Compound 1-13, 6-(4-fluorobenzyl)-5,6,11,11a-tetrahydro-1H-imidazo[1′,5′:1,6]pyrido[3,4-b]indol-3(2H)-one], the IC50 was < 500 nM.

In the case of `CN1CC2Cc3c(n(Cc4ccc(F)cc4)c4ccccc34)CN2C1=O` (racemic) [Compound 1-14, 6-(4-fluorobenzyl)-2-methyl-5,6,11,11a-tetrahydro-1H-imidazo[1′,5′:1,6]pyrido[3,4-b]indol-3(2H)-one], the IC50 is < 500 nM.

`O=C1NCC(=O)N2Cc3c(c4ccccc4n3Cc3ccc(F)cc3)CC12` (racemic) [Compound 1-16, 7-(4-fluorobenzyl)-2,3,6,7,12,12a-hexahydropyrazino[1′,2′:1,6]pyrido[3,4-b]indole-1,4-dione]: the IC50 is < 500 nM.

Regarding `O=C(O)CN1CC2Cc3c(n(Cc4ccc(F)cc4)c4ccccc34)CN2C1=O` (racemic) [Compound 1-20, 2-(6-(4-fluorobenzyl)-3-oxo-11,11a-dihydro-1H-imidazo[1′,5′:1,6]pyrido[3,4-b]indol-2(3H,5H,6H)-yl)acetic acid], the IC50 is 500 to 1000 nM.

In the case of `O=C(O)CN1CC(=O)N2Cc3c(c4ccccc4n3Cc3ccc(F)cc3)CC2C1=O` (racemic) [Compound 1-23, 2-(7-(4-fluorobenzyl)-1,4-dioxo-3,4,6,7,12,12a-hexahydropyrazino[1′,2′:1,6]pyrido[3,4-b]indol-2(1H)-yl)acetic acid], the IC50 is < 500 nM.

`CN1C(=O)C2Cc3c(n(Cc4ccc(F)cc4)c4ccccc34)CN2C1=O` (racemic) [Compound 1-129, 6-(4-fluorobenzyl)-2-methyl-5,6,11,11a-tetrahydro-1H-imidazo[1′,5′:1,6]pyrido[3,4-b]indole-1,3(2H)-dione]: the IC50 was < 500 nM.

On to `N#CCN1C(=O)C2Cc3c(n(Cc4ccc(F)cc4)c4ccccc34)CN2C1=O` (racemic) [Compound 1-139, 2-(6-(4-fluorobenzyl)-1,3-dioxo-5,6,11,11a-tetrahydro-1H-imidazo[1′,5′:1,6]pyrido[3,4-b]indol-2(3H)-yl)acetonitrile], for which the IC50 is < 500 nM.

With `O=C1C2Cc3c(n(Cc4ccc(F)cc4)c4ccccc34)CN2C(=O)N1Cc1nn[nH]n1` (racemic) [Compound 1-140, 2-((2H-tetrazol-5-yl)methyl)-6-(4-fluorobenzyl)-5,6,11,11a-tetrahydro-1H-imidazo[1′,5′:1,6]pyrido[3,4-b]indole-1,3(2H)-dione], the IC50 is < 500 nM.

On to `CC1(C)c2c(n(Cc3ccc(F)cc3)c3ccccc23)CN2C(=O)NC(=O)C21` (racemic) [Compound A110, 6-(4-fluorobenzyl)-11,11-dimethyl-5,6,11,11a-tetrahydro-1H-imidazo[1′,5′:1,6]pyrido[3,4-b]indole-1,3(2H)-dione], for which the IC50 was < 500 nM.

As for `CC1(C)c2c(n(Cc3ccc(F)cc3)c3ccccc23)CN2C(=O)NC(=O)C21` (single isomer, unassigned) [A110 ent A, 6-(4-fluorobenzyl)-11,11-dimethyl-5,6,11,11a-tetrahydro-1H-imidazo[1′,5′:1,6]pyrido[3,4-b]indole-1,3(2H)-dione], the half-inhibitory concentration (IC50) was < 500 nM.

Consider `CC1(C)c2c(n(Cc3ccc(F)cc3)c3ccccc23)CN2C(=O)NC(=O)C21` (single isomer, unassigned) [A110 ent B, 6-(4-fluorobenzyl)-11,11-dimethyl-5,6,11,11a-tetrahydro-1H-imidazo[1′,5′:1,6]pyrido[3,4-b]indole-1,3(2H)-dione], for which the IC50 is < 500 nM.

Consider `O=C(O)CCN1C(=O)C2Cc3c(n(Cc4ccc(F)cc4)c4ncccc34)CN2C1=O` (single isomer, unassigned; enta) [C114 entA, 3-{8-[(4-fluorophenyl)methyl]-12,14-dioxo-6.8.11.13-tetraazatetracyclo[7.7.0.02, 7.011,15]hexadeca-1(9),2(7),3,5-tetraen-13-yl}propionic acid], for which the IC50 is < 500 nM.

Regarding `O=C(O)CCN1C(=O)C2Cc3c(n(Cc4ccc(F)cc4)c4ncccc34)CN2C1=O` (single isomer, unassigned; entb) [C114 entB, 3-{8-[(4-fluorophenyl)methyl]-12,14-dioxo-6.8.11.13-tetraazatetracyclo[7.7.0.02, 7.011,15]hexadeca-1(9),2(7),3,5-tetraen-13-yl}propionic acid], the IC50 is < 500 nM.

As for `O=C(O)CCCN1C(=O)[C@@H]2Cc3c(n(Cc4ccc(F)cc4)c4ccccc34)CN2C1=O` [Compound 1-2, (S)-4-(6-(4-fluorobenzyl)-1,3-dioxo-11,11a-dihydro-1H-imidazo[1′,5′:1,6]pyrido[3,4-b]indol-2(3H,5H,6H)-yl)butanoic acid], the IC50 is < 500 nM.

Take `O=C(O)CCCN1C(=O)[C@H]2Cc3c(n(Cc4ccc(F)cc4)c4ccccc34)CN2C1=O` [Compound 1-3, (R)-4-(6-(4-fluorobenzyl)-1,3-dioxo-11,11a-dihydro-1H-imidazo[1′,5′:1,6]pyrido[3,4-b]indol-2(3H,5H,6H)-yl)butanoic acid]: the IC50 is < 500 nM.

As for `O=C1OCC2Cc3c(n(Cc4ccc(F)cc4)c4ccccc34)CN12` (centres unmarked) [Compound 1-8, 6-(4-fluorobenzyl)-5,6,11,11a-tetrahydrooxazolo[3′,4′:1,6]pyrido[3,4-b]indol-3(1H)-one], the IC50 was < 500 nM.

`O=C1OC[C@@H]2Cc3c(n(Cc4ccc(F)cc4)c4ccccc34)CN12` [Compound 1-9, (S)-6-(4-fluorobenzyl)-5,6,11,11a-tetrahydrooxazolo[3′,4′:1,6]pyrido[3,4-b]indol-3(1H)-one]: the IC50 was < 500 nM.

Take `O=C1OC[C@H]2Cc3c(n(Cc4ccc(F)cc4)c4ccccc34)CN12` [Compound 1-10, (R)-6-(4-fluorobenzyl)-5,6,11,11a-tetrahydrooxazolo[3′,4′:1,6]pyrido[3,4-b]indol-3(1H)-one]: the IC50 is > 1000 nM.

As to `COc1ccc(Cn2c3c(c4ccccc42)C[C@H]2C(=O)N(CCCC(=O)O)C(=O)N2C3)cn1` [Compound 1-11, (S)-4-(6-((6-methoxypyridin-3-yl)methyl)-1,3-dioxo-11,11a-dihydro-1H-imidazo[1′,5′:1,6]pyrido[3,4-b]indol-2(3H,5H,6H)-yl)butanoic acid], the IC50 was < 500 nM.

On to `COc1ccc(Cn2c3c(c4ccccc42)C[C@H]2C(=O)N(CCC(=O)O)C(=O)N2C3)cn1` [Compound 1-12, (S)-3-(6-((6-methoxypyridin-3-yl)methyl)-1,3-dioxo-11,11a-dihydro-1H-imidazo[1′,5′:1,6]pyrido[3,4-b]indol-2(3H,5H,6H)-yl)propanoic acid], for which the IC50 is < 500 nM.

Regarding `COc1ccc(Cn2c3c(c4ccccc42)C[C@H]2C(=O)N(CC4(C(=O)O)CC4)C(=O)N2C3)cn1` [Compound 1-18, (S)-1-((6-((6-methoxypyridin-3-yl)methyl)-1,3-dioxo-5,6,11,11a-tetrahydro-1H-imidazo[1′,5′:1,6]pyrido[3,4-b]indol-2(3H)-yl)methyl)cyclopropane-1-carboxylic acid], the IC50 was < 500 nM.

`O=C(O)CN1C(=O)C2Cc3c(n(Cc4ccc(F)cc4)c4ccccc34)CN2C1=O` (centres unmarked) [Compound 1-19, 2-(6-(4-fluorobenzyl)-1,3-dioxo-5,6,11,11a-tetrahydro-1H-imidazo[1′,5′:1,6]pyrido[3,4-b]indol-2(3H)-yl)acetic acid]: the IC50 was < 500 nM.

Turning to `O=C(O)CCN1CC2Cc3c(n(Cc4ccc(F)cc4)c4ccccc34)CN2C1=O` (centres unmarked) [Compound 1-21, 3-(6-(4-fluorobenzyl)-3-oxo-11,11a-dihydro-1H-imidazo[1′,5′:1,6]pyrido[3,4-b]indol-2(3H,5H,6H)-yl)propanoic acid], the IC50 was < 500 nM.

Consider `O=C(O)CCN1CC(=O)N2Cc3c(c4ccccc4n3Cc3ccc(F)cc3)CC2C1=O` (centres unmarked) [Compound 1-24, 3-(7-(4-fluorobenzyl)-1,4-dioxo-3,4,6,7,12,12a-hexahydropyrazino[1′,2′:1,6]pyrido[3,4-b]indol-2(1H)-yl)propanoic acid], for which the IC50 is < 500 nM.

Turning to `O=C1NC(=O)N2Cc3c(c4ccc(Cl)cc4n3Cc3ccc(F)cc3)C[C@@H]12` [Compound 1-26, (S)-8-chloro-6-(4-fluorobenzyl)-5,6,11,11a-tetrahydro-1H-imidazo[1′,5′:1,6]pyrido[3,4-b]indole-1,3(2H)-dione], the IC50 was > 1000 nM.

As for `O=C(O)CCCN1C(=O)[C@@H]2Cc3c(n(Cc4ccc(F)cc4)c4cc(Cl)ccc34)CN2C1=O` [Compound 1-27, (S)-4-(8-chloro-6-(4-fluorobenzyl)-1,3-dioxo-5,6,11,11a-tetrahydro-1H-imidazo[1′,5′:1,6]pyrido[3,4-b]indol-2(3H)-yl)butanoic acid], the IC50 is > 1000 nM.

With `CC(C)(CN1C(=O)[C@@H]2Cc3c(n(Cc4ccc(F)cc4)c4ccccc34)CN2C1=O)C(=O)O` [Compound 1-30, (S)-3-(6-(4-fluorobenzyl)-1,3-dioxo-5,6,11,11a-tetrahydro-1H-imidazo[1′,5′:1,6]pyrido[3,4-b]indol-2(3H)-yl)-2,2-dimethylpropanoic acid], the IC50 was < 500 nM.

For the compound `O=C1[C@@H]2Cc3c(n(Cc4ccc(F)cc4)c4ccccc34)CN2C(=O)N1CC1(C(=O)O)CC1` [Compound 1-34, (S)-1-((6-(4-fluorobenzyl)-1,3-dioxo-5,6,11,11a-tetrahydro-1H-imidazo[1′,5′:1,6]pyrido[3,4-b]indol-2(3H)-yl)methyl)cyclopropane-1-carboxylic acid], the IC50 is < 500 nM.
